This note sets out measurements from US12552771B2, “Carboxylic acid containing azetidinyl compounds for the treatment of neurodegenerative diseases” (Celgene Corporation, priority 2021, dated 2026).

Where a name gives a salt, the structure may show the parent alone. Bounds are passed on as bounds.

The target in the assay is T1, S1P5 receptors (Homo sapiens, UniProt Q9H228).
T1 construct: expressed in transfected cells; host or cells: CHO cells (membranes)
T1 sequence (Q9H228 whole entry): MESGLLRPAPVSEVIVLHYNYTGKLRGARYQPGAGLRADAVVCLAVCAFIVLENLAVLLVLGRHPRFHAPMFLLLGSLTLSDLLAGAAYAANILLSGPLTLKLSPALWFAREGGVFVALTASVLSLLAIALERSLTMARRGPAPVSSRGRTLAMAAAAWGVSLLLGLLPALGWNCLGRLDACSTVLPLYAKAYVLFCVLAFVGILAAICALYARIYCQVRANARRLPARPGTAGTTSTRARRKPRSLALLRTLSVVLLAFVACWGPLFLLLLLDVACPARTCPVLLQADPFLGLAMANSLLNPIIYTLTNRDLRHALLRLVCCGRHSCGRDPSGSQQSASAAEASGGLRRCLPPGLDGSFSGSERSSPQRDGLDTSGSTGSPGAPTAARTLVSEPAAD
The assay can be described thus: [35S]-GTPγS binding assay with CHO-S1P5 receptor membranes. The assay is classed as biochemical. The note with it: membranes of CHO cells expressing recombinant S1P5 receptors; measure of S1P5 agonism. Here is the method: CHO cells expressing recombinant S1P5 receptors were cultured in 500 cm^2 culture trays and, once confluent, rinsed and detached with cell-lifting buffer (10 mM HEPES, 154 mM NaCl, 6.85 mM EDTA, pH 7.4). Cells were then pelleted by centrifugation, resuspended, and homogenized in membrane preparation buffer (10 mM HEPES and 10 mM EDTA, pH 7.4) using a Polytron PT 1200E homogenizer (Kinematica, Luzern, Switzerland). Cellular proteins were pelleted by centrifugation at 48,000×g at 4° C. for 30 minutes. The resulting supernatant was discarded, and the pellet was re-suspended again in membrane preparation buffer, homogenized for a second time, and then centrifuged again as described above. The final cellular protein pellet was suspended in ice cold resuspension buffer (10 mM HEPES and 0.1 mM EDTA, pH 7.4), divided into aliquots, and stored at −80° C. until use.
Functional binding assays for [^35]-GTPγS were performed in 96-well non-binding surface plates with a final volume of 200 μL. The test compounds were serially diluted in DMSO and added to assay plates using a Tecan D300E digital printer with a total volume of […]. The control sphingosine-1-phosphate (SiP) was prepared separately by preparing a 400 μM stock solution from a 100 nmol pellet of SiP in 10 mM Na2CO3 with 2% […]. The serial dilution of SiP was done using complete assay buffer (20 mM HEPES, 10 mM MgCl2, 100 mM NaCl, 1 mM EDTA, 0.1% fatty acid free bovine serum albumin (BSA), and 30 μg/mL saponin, pH 7.4) and transferred to wells already containing 0.4 μL DMSO. All the wells were then loaded to a total volume of 40 μL of complete assay buffer, except the non-specific binding (NSB) wells. For NSB wells, 40 μL/well of 50 μM GTPγS (Sigma Aldrich, cat #G8634, St. Louis, MO) was added to wells containing 0.4 μL of DMSO. The assay was started by the addition of 120 μL/well of CHO-S1P receptor membrane solution containing 40 μg/mL of membrane protein, 16.67 μM guanosine diphosphate (GDP; Sigma Aldrich, cat #G7127, St. Louis, MO), and 2.5 mg/mL of WGA PVT SPA beads in complete buffer. Assay plates were then sealed and incubated at room temperature with gentle agitation for 30 minutes. Next, 40 μL/well of 1 nM of [^35]-GTPγS (PerkinElmer, cat #NEG030X250UC, Waltham, MA) in basic assay buffer (20 mM HEPES, 10 mM MgCl2, 100 mM NaCl, and 1 mM EDTA, pH7.4) was added to the assay plates to yield a final concentration of 200 pM and the plates were further incubated for 40 minutes at room temperature with gentle agitation. The assay was terminated by centrifugation of the plates at 1000 rpm for 3 minutes using an Eppendorf 5810R centrifuge (Eppendorf, Hamburg, Germany) and G protein bound radioactivity was quantitated using a MicroBeta2 microplate scintillation counter (PerkinElmer, Waltham, MA). As G protein bound radioactivity directly correlates to receptor activation and coupling to the G protein, this assay is a measure of S1P5 agonism.
Broadly, the EC50 is the concentration at which the effect is half-maximal. Regarding `O=C(O)[C@H]1CCN(Cc2ccc(C3CN(c4c(Cl)cccc4Cl)C3)cc2)C1` [Compound 12a, (S)-1-(4-(1-(2,6-dichlorophenyl)azetidin-3-yl)benzyl)pyrrolidine-3-carboxylic acid], the EC50 was in the range of 10 to 100 nM.
Take `O=C(O)C1CCN(C2CCc3cc(C4CN(c5c(F)cccc5F)C4)ccc32)CC1` (single isomer, unassigned) [Compound 2a, 1-(5-(1-(2,6-difluorophenyl)azetidin-3-yl)-2,3-dihydro-1H-inden-1-yl)-piperidine-4-carboxylic acid]: the EC50 lay within 10 to 100 nM.
As for `Cc1cc(N2CC(c3c(Cl)cccc3Cl)C2)cc(C)c1CN1CCC(C(=O)O)CC1` [Compound 28, 1-(4-(3-(2,6-dichlorophenyl)azetidin-1-yl)-2,6-dimethylbenzyl)piperidine-4-carboxylic acid], the EC50 is at most 10 nM.
With `O=C(O)C1CCN(Cc2ccc(N3CC(F)(c4c(Cl)cccc4Cl)C3)cc2)CC1` [Compound 35, 1-(4-(3-(2,6-dichlorophenyl)-3-fluoroazetidin-1-yl)benzyl)piperidine-4-carboxylic acid], the EC50 lay within 1000 to 10000 nM.
Take `O=C(O)C1CCN(Cc2ccc(C3CN(c4c(Cl)cccc4Cl)C3)cc2C2CC2)CC1` [Compound 56, 1-(2-cyclopropyl-4-(1-(2,6-dichlorophenyl)azetidin-3-yl)benzyl)piperidine-4-carboxylic acid]: the EC50 is at most 10 nM.
For the molecule `Cc1cc(C2CN(c3c(Cl)cccc3Cl)C2)cc(C)c1CN1CC(C(=O)O)C1` [Compound 59, 1-(4-(1-(2,6-dichlorophenyl)azetidin-3-yl)-2,6-dimethylbenzyl)azetidine-3-carboxylic acid], the EC50 is at most 10 nM.
Take `CC1(C(=O)O)CCN(Cc2ccc(C3CN(c4c(Cl)cccc4Cl)C3)cc2)CC1` [Compound 89, 1-(4-(1-(2,6-dichlorophenyl)azetidin-3-yl)benzyl)-4-methylpiperidine-4-carboxylic acid, formic acid salt]: the EC50 lay in the range of 10 to 100 nM.
Consider `Cc1cc(C2CN(c3c(Cl)cccc3Cl)C2)cc(C)c1CN1CCC(C(=O)O)CC1(C)C` (stereo not drawn) [Compound 65, 1-(4-(1-(2,6-dichlorophenyl)azetidin-3-yl)-2,6-dimethylbenzyl)-2,2-dimethylpiperidine-4-carboxylic acid], for which the EC50 fell in the range of 10 to 100 nM.
For the molecule `O=C(O)C1CCN(Cc2ccc(C3CN(c4ccc(C5CC5)cc4)C3)cc2)CC1` [Compound 43, 1-(4-(1-(4-cyclopropylphenyl)azetidin-3-yl)benzyl)piperidine-4-carboxylic acid], the half-maximal effective concentration (EC50) was in the range of 1000 to 10000 nM.
To `O=C(O)C1CCN(C2CCc3cc(N4CC(c5c(F)cccc5F)C4)ccc32)CC1` (single isomer, unassigned) [Compound 9b, 1-(5-(3-(2,6-difluorophenyl)azetidin-1-yl)-2,3-dihydro-1H-inden-1-yl)piperidine-4-carboxylic acid] belongs 100 to 1000 nM.
On to `CC(C)(c1ccc(C2CN(c3c(Cl)cccc3Cl)C2)nc1)N1CCC(C(=O)O)CC1` [Compound 87, 1-(2-(6-(1-(2,6-dichlorophenyl)azetidin-3-yl)pyridin-3-yl)propan-2-yl)-piperidine-4-carboxylic acid], for which the EC50 fell in the range of 10 to 100 nM.
Regarding `Cc1cc(CN2CCC(C(=O)O)CC2)nc(C)c1C1CN(c2c(Cl)cccc2Cl)C1` [Compound 84, 1-((5-(1-(2,6-dichlorophenyl)azetidin-3-yl)-4,6-dimethyl-pyridin-2-yl)methyl)piperidine-4-carboxylic acid], the EC50 lay within 10 to 100 nM.
To `O=C(O)C1CCN(C2CCc3cc(C4CN(c5ccccc5F)C4)ccc32)CC1` (single isomer, unassigned) [Compound 4b, 1-(5-(1-(2-fluorophenyl)azetidin-3-yl)-2,3-dihydro-1H-inden-1-yl)piperidine-4-carboxylic acid] belongs 1000 to 10000 nM; to `O=C(O)C1CCN(Cc2ccc(C3CN(c4c(Cl)cccc4Cl)C3)nc2)CC1` [Compound 21, 1-((6-(1-(2,6-dichlorophenyl)azetidin-3-yl)pyridin-3-yl)methyl)piperidine-4-carboxylic acid], 10 to 100 nM.
Consider `O=C(O)C1CCN(C2CCc3cc(C4CN(c5cccc(F)c5)C4)ccc32)CC1` (single isomer, unassigned) [Compound 3b, 1-(5-(1-(3-fluorophenyl)azetidin-3-yl)-2,3-dihydro-1H-inden-1-yl)piperidine-4-carboxylic acid], for which the half-maximal effective concentration (EC50) was 1000 to 10000 nM.
As for `Cc1cc(C2CN(c3c(C)cccc3C(F)(F)F)C2)cc(C)c1CN1CCC(C(=O)O)CC1` [Compound 73, 1-(2,6-dimethyl-4-(1-(2-methyl-6-(trifluoromethyl)phenyl)azetidin-3-yl)-benzyl)piperidine-4-carboxylic acid], the EC50 is at most 10 nM.
To `Cc1cc(C2CN(c3c(Cl)cccc3Cl)C2)cc(C)c1CN1CCC(C(=O)O)C(F)C1` (stereo not drawn) [Compound 64, 1-(4-(1-(2,6-dichlorophenyl)azetidin-3-yl)-2,6-dimethylbenzyl)-3-fluoro-piperidine-4-carboxylic acid] belongs at most 10 nM.
On to `Cc1cc(C2CN(c3c(C)cccc3C3CC3)C2)cc(C)c1CN1CCC(C(=O)O)CC1` [Compound 71, 1-(4-(1-(2-cyclopropyl-6-methylphenyl)azetidin-3-yl)-2,6-dimethylbenzyl)-piperidine-4-carboxylic acid], for which the EC50 was at most 10 nM.
With `Cc1cc(C2CN(c3c(Cl)cccc3Cl)C2)cc(C)c1CN1CCC(C(=O)O)C(C)C1` (stereo not drawn) [Compound 61, 1-(4-(1-(2,6-dichlorophenyl)azetidin-3-yl)-2,6-dimethylbenzyl)-3-methyl-piperidine-4-carboxylic acid], the EC50 was at most 10 nM.
In the case of `O=C(O)C1CCN(Cc2ccc(C3CN(c4c(Cl)cccc4Cl)C3)cc2)CC1` [Compound 11, 1-(4-(1-(2,6-dichlorophenyl)azetidin-3-yl)benzyl)piperidine-4-carboxylic acid], the half-maximal effective concentration (EC50) lay in the range of 10 to 100 nM.
To `Cc1cc(C2CN(c3c(C)cccc3Cl)C2)cc(C)c1CN1CCC(C(=O)O)CC1` [Compound 67, 1-(4-(1-(2-chloro-6-methylphenyl)azetidin-3-yl)-2,6-dimethylbenzyl)-piperidine-4-carboxylic acid] belongs at most 10 nM; to `O=C(O)C1CN(C2CCc3cc(C4CN(c5cccc(F)c5)C4)ccc32)C1` (single isomer, unassigned) [Compound 8a, 1-(5-(1-(3-fluorophenyl)azetidin-3-yl)-2,3-dihydro-1H-inden-1-yl)azetidine-3-carboxylic acid], 1000 to 10000 nM.
With `Cc1cc(CN2CCC(C(=O)O)CC2)cc(C)c1N1CC(F)(c2c(Cl)cccc2Cl)C1` [Compound 36, 1-(4-(3-(2,6-dichlorophenyl)-3-fluoroazetidin-1-yl)-3,5-dimethylbenzyl)-piperidine-4-carboxylic acid], the EC50 was 10 to 100 nM.
Turning to `Cc1cc(C2CN(c3c(Cl)cccc3Cl)C2)cc(C)c1CN1CC[C@@H](C(=O)O)C1` [Compound 60, (R)-1-(4-(1-(2,6-dichlorophenyl)azetidin-3-yl)-2,6-dimethylbenzyl) pyrrolidine-3-carboxylic acid], the concentration giving a half-maximal response (EC50) is at most 10 nM.
On to `O=C(O)C1CCN(C2CCc3cc(N4CC(c5c(F)cccc5F)C4)ccc32)CC1` (single isomer, unassigned) [Compound 9a, 1-(5-(3-(2,6-difluorophenyl)azetidin-1-yl)-2,3-dihydro-1H-inden-1-yl)piperidine-4-carboxylic acid], for which the EC50 is at most 10 nM.
Consider `O=C(O)C1CN(Cc2ccc(C3CN(c4c(Cl)cccc4Cl)C3)cc2)C1` [Compound 13, 1-(4-(1-(2,6-dichlorophenyl)azetidin-3-yl)benzyl)azetidine-3-carboxylic acid], for which the 50% effective concentration (EC50) was at most 10 nM.
As for `CCc1cc(C2CN(c3c(Cl)cccc3Cl)C2)cc(CC)c1CN1CCC(C(=O)O)CC1` [Compound 52, 1-(4-(1-(2,6-dichlorophenyl)azetidin-3-yl)-2,6-diethylbenzyl)piperidine-4-carboxylic acid], the EC50 was at most 10 nM.
